Laboratory results published in publication PMC6396489 (Cell Communication and Signaling : CCS, 2019).
Entries after “also recorded” stand apart in the source; their conditions may differ.

Key:
[1] = test system: NIH3T3 cells; test: Wound-healing assay; format: cell-based; details: for effect on GroPIns4P-stimulated wound closure: 50 μM GroPIns4P
Description: To perform the wound-healing assay, NIH3T3 cells were seeded in 6-well tissue culture plates to a final density of 3 × 10^5 cells/well and maintained at 37 °C and 5% CO2 for 24 h until confluence before being starved overnight in DMEM containing 1% bovine serum. The cell monolayer was wounded by scratching with a 10 μL standard sterile pipette tip. The scratched monolayer was rinsed twice with DMEM containing 1% bovine serum to remove cell debris and incubated with or without 50 μM GroPIns4P. […] In detail, the input image was processed by applying a Sobel edge detector [26], obtaining a gradient image. A threshold process was then performed on the gradient image to obtain the foreground corresponding to the wound area. Particularly, all of the pixels of the gradient image with values less than the threshold θ were assumed to be pixels of the foreground (experimentally, θ is set to 4). Finally, procedures based on morphological operations were used to remove small regions and to fill holes of the wound area to complete detection and analysis.

[2] = test system: NIH3T3 cells; test: Immunofluorescence analysis for membrane ruffling; format: cell-based; details: for effect of pre-treatment on peripheral ruffles in response to GroPIns4P: with 50 μM GroPIns4P for 5 min
Description: NIH3T3 and Raw 264.7 cells were cultured in DMEM supplemented with 2 mM L-glutamine, 50 U/mL penicillin, […] streptomycin, and 10% CS or heat-inactivated FBS (30 min at 55 °C), respectively. NIH3T3 cells were transfected with different plasmids using the Lipofectamine LTX/plus reagent according to the manufacturer’s instructions. For immunofluorescence experiments, NIH3T3 cells were seeded onto glass coverslips in 24-well plates at a concentration suitable for 70% confluence without transfection or 50% confluence in the case of Lipofectamine-based cell transfection. In the latter, approximately 24 h after seeding, NIH3T3 cells were transiently transfected with different plasmids with the Lipofectamine LTX/plus reagent following the manufacturer’s instructions. Before treatments, NIH3T3 cells were serum-starved in DMEM with 2 mM glutamine, 50 U/mL penicillin and streptomycin for 16–20 h. The cells were then treated with different stimuli and/or inhibitors, as indicated in the text and/or Figure legends. Addition of exogenous GroPIns4P was at 50 μM (unless otherwise indicated), a concentration eliciting an intracellular concentration of about 1.5 μM, as calculated from the Nernst equation (with T = 300 K, z = − 3, and Veq = − 30 mV, an average value for cultured, non-excitable cells).
For ruffle assessment after treatments, immunofluorescence labelling and morphological analysis of the cells were performed as previously described in a double-blind fashion. In brief, the assessment was based on a null score (zero) for the absence of the feature, followed by a score of one or two according to the level of response of each individual cell, where one indicate that ruffling was confined to one area of the cell (< 25% of the cell circumference), and two indicate that two or more discrete areas of the cell contained ruffles. The cell phenotypes were quantified by counting 150 cells in each sample. The data were then expressed as percentage scores (±SD) for each treatment response compared with its respective control. Scoring of the control cells was performed in the same way to evaluate the presence of the features of interest in untreated cells.

[3] = target: T1, Shp1 (Homo sapiens, UniProt P29350); test: Isothermal titration calorimetry, Shp1 WT; format: binding; details: Ins4P 50 µM (Fig. S2)
T1 construct: the C-terminal truncated form of human Shp1 cDNA (His-Shp1; amino acids 1–529); made in house; host or cells: E. coli BL21(DE3)
T1 sequence (P29350 1-529 isoform P29350-3): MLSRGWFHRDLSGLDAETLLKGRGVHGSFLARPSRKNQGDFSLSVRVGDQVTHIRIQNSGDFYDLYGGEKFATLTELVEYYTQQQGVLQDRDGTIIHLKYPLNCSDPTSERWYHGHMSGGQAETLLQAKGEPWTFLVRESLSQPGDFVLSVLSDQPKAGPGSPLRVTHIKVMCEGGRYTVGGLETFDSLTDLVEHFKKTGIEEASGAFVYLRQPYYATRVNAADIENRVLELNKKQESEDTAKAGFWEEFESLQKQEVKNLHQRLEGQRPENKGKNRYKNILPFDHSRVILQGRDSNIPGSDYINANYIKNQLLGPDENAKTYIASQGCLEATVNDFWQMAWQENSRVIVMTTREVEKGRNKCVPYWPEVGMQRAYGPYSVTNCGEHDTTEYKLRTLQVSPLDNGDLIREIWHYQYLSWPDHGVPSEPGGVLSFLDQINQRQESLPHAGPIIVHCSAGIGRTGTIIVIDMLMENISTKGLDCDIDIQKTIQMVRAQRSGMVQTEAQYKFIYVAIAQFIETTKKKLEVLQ
Description: ITC measurements were performed by using a Nano-ITC III (TA instruments, New Castle, DE, USA) with a reaction cell volume of 1 ml kept at 25 °C. A protein solution of 10 μM was titrated into the calorimetric cell with a solution of 50–100 μM of the ligand GroPIns4P (Ins4P) in the syringe. A sequence of 16 injections of 15 μL volume was programmed with a stirring speed of 250 rpm at 500 s intervals. Protein samples were prepared with protein solutions at 25 °C in 20 mM Tris buffer pH 7.4 with 50 mM NaCl and 1 mM TCEP. To minimise the differences in buffer composition and pH between cell and syringe, both ligand and protein solutions were prepared with the same batch of buffer. The heat of dilution of the GroPIns4P into the buffer solution was measured in a separate experiment and appropriate corrections were made. The heat evolved after each ligand injection was obtained from the integral of the calorimetric signal. Raw data were integrated, corrected for non-specific heats and normalized for concentration. The equilibrium dissociation constant (KD), binding enthalpy (ΔbH) and binding stoichiometry (n) were obtained by nonlinear regression of the experimental data using a model of independent binding sites, by means of the NanoAnalyze software. Experiments were performed in duplicate.

[4] = test system: actin cytoskeleton; design: method as in PMID 12589050; details: cited from earlier work

O=S(=O)(O)c1ccc2cc(N=Nc3cc(S(=O)(=O)O)c4cccnc4c3O)ccc2c1 [NSC-87877]
reduction of EGF-induced cell migration ([1]; 100 μM, EGF 10 ng/ml): ~100%
effect on GroPIns4P-stimulated wound closure ([1]; pre-treatment 100 μM): completely abrogated
effect of pre-treatment on peripheral ruffles in response to GroPIns4P [2]: strongly impair

EGF: Epidermal growth factor
cell migration ([1]; 10 ng/ml EGF): significant increase

O=P(O)(O)OC1[C@@H](O)[C@@H](O)C(O)[C@H](O)[C@H]1O (stereo partly shown) [Ins4P, Inositol 4-phosphate, reference compound]
binding to Shp1 by ITC [3]: did not indicate any specific binding; also recorded: no binding was resolved
effect on actin cytoskeleton organisation [4]: no effect

O=C1C=CC(=O)C(c2cc(Cl)ccc2Cl)=C1 [TPI-1]
reduction of EGF-induced cell migration ([1]; 25 μM, EGF 10 ng/ml): 50%
effect on GroPIns4P-stimulated wound closure ([1]; pre-treatment 25 μM): completely abrogated
effect of pre-treatment on peripheral ruffles in response to GroPIns4P [2]: strongly impair

PDGF
effect of Shp1-C455S overexpression on PDGF-induced ruffles ([2]; 10 ng/ml PDGF): not affected
increase in ruffles versus the control ([2]; 10 ng/ml PDGF for 5 min, positive control): 3.5–4 fold

CCCCC/C=C\C/C=C\C/C=C\C/C=C\CCCC(=O)O [arachidonic acid]
effect on EGF-induced cell motility ([1]; 10–50 μM): did not affect
effect when combined with the PLA2 inhibitor in EGF-stimulated cells ([1]; EGF 10 ng/ml, cPLA2α inhibitor, arachidonic acid): minor inhibitory effect
